From ChEMBL document CHEMBL1201862, “PubChem BioAssay data set” (2004) come the findings set out here.

Test systems include RXF 393; HCC 2998; SN12C; SK-MEL-28; SF-295; RPMI-8226; A549; Malme-3M; COLO 205; HOP-62; HT-29; MDA-MB-435; HCT-15; K562; SK-MEL-2; M14; CAKI-1; TK-10.
What all share (experiment): DTP human tumour cell line panel, 48 h

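A five-concentration, 48-hour dose response in 96-well plates underlies each endpoint, interpolated linearly between surrounding concentrations. GI50 marks 50% less growth.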 The source made the active and inactive calls. Rule as the data show it: active = GI50 up to about 1.1 µM and inactive = higher.

For the molecule `[O-][n+]1ccc(NO)c2ccccc21`, the GI50 in the assay on RXF 393 was 0.592 µM (active); in the assay on HCC 2998, 0.253 µM (active); in the assay with SN12C it was 1.38 µM (inactive); in the assay with SK-MEL-28, 1.3 µM (inactive); with SF-295, 0.374 µM (active); in the assay with RPMI-8226 it was 0.297 µM (active). The GI50 in the assay on A549 was 1.6 µM (inactive); in the assay on Malme-3M it was 6.5 µM (inactive); in the assay on COLO 205, 1.41 µM (inactive); with HOP-62, 1.79 µM (inactive); with HT-29, 1.19 µM (inactive); in the assay on MDA-MB-435 it was 4.6 µM (inactive). The GI50 in the assay with HCT-15 is 1.75 µM; with K562, 2 µM (inactive); with SK-MEL-2 it was 1.77 µM (inactive); with M14, 1.93 µM (inactive); with CAKI-1, 1.16 µM (inactive); with TK-10 it was 2.02 µM (inactive).
On to `C=C[C@@]1(O)CCCC[C@@H]1CC(Sc1ccccc1)Sc1ccccc1`, for which the GI50 with RXF 393 was 14.9 µM (inactive); in the assay on HCC 2998, 13 µM (inactive); with SN12C, 18.2 µM (inactive); in the assay on SK-MEL-28, 25.4 µM (inactive); with SF-295 it was 14.7 µM (inactive); with RPMI-8226, 27.5 µM (inactive). The GI50 was 15.9 µM (inactive) in the assay with A549; 14.6 µM (inactive) in the assay on Malme-3M; 18.3 µM (inactive) with COLO 205; 16 µM (inactive) in the assay on HOP-62; 19.4 µM (inactive) in the assay on HT-29; 16.3 µM (inactive) in the assay with MDA-MB-435. In addition, the GI50 is 17.1 µM with HCT-15; 33 µM (inactive) in the assay on K562; 16 µM (inactive) in the assay on SK-MEL-2; 19.4 µM (inactive) in the assay with M14; 14.8 µM (inactive) in the assay on CAKI-1; 15.7 µM (inactive) in the assay with TK-10.
In the case of `NCCSCCc1ccccc1`, the GI50 was > 100 µM (inactive) in the assay on RXF 393; > 100 µM (inactive) in the assay on HCC 2998; > 100 µM (inactive) with SN12C; > 100 µM (inactive) in the assay on SK-MEL-28; > 100 µM (inactive) in the assay on SF-295; 44 µM (inactive) in the assay on RPMI-8226. Moreover, the GI50 with A549, in the assay with Malme-3M, in the assay with COLO 205, with HOP-62, with HT-29 and in the assay with MDA-MB-435 was > 100 µM (inactive) throughout. Besides, the concentration for 50% growth inhibition (GI50) was more than 100 µM in the assay on HCT-15; > 100 µM (inactive) in the assay with K562; > 100 µM (inactive) with SK-MEL-2; > 100 µM (inactive) with M14; > 100 µM (inactive) with CAKI-1; > 100 µM (inactive) in the assay on TK-10.
On to `Sc1nnc(C23CC4CC(CC(C4)C2)C3)n1-c1ccc(Cl)cc1`, for which the GI50 with RXF 393 was 14.2 µM (inactive); in the assay on HCC 2998 it was 13.7 µM (inactive); in the assay with SN12C, 14.1 µM (inactive); in the assay on SK-MEL-28, 11.9 µM (inactive); with SF-295 it was 11.1 µM (inactive); in the assay on RPMI-8226, 8.89 µM (inactive). For the same molecule, the GI50 in the assay with A549 was 8.34 µM (inactive); in the assay on Malme-3M, 13.5 µM (inactive); in the assay with COLO 205, 13.2 µM (inactive); in the assay on HOP-62, 13 µM (inactive); in the assay with HT-29, 14.6 µM (inactive); with MDA-MB-435 it was 12.9 µM (inactive). Also, the concentration for 50% growth inhibition (GI50) in the assay with HCT-15 was 7.83 µM; in the assay with K562, 9.59 µM (inactive); in the assay on SK-MEL-2, 10.9 µM (inactive); in the assay with M14 it was 15.1 µM (inactive); with CAKI-1, 1.96 µM (inactive); with TK-10 it was 22.3 µM (inactive).
Turning to `O=C(O)CC1NC(/C(=C/c2ccccc2)NC(=O)c2ccccc2)OC1=O` (centres undefined), the GI50 in the assay with RXF 393 is 34.5 µM (inactive); in the assay with HCC 2998 it was 37.9 µM (inactive); with SN12C, 43.3 µM (inactive); with SK-MEL-28, 24.3 µM (inactive); with SF-295, 38.1 µM (inactive); in the assay on RPMI-8226 it was 20.2 µM (inactive). The GI50 with A549 is 84.5 µM (inactive); in the assay on Malme-3M, 36.9 µM (inactive); in the assay with COLO 205, 19.8 µM (inactive); with HOP-62, 18.9 µM (inactive); in the assay on HT-29, 29.8 µM (inactive); with MDA-MB-435, 24.6 µM (inactive). Also, the GI50 in the assay with HCT-15 is 31 µM; with K562, 21.3 µM (inactive); in the assay with SK-MEL-2 it was 27.6 µM (inactive); in the assay on M14, 17.1 µM (inactive); in the assay on CAKI-1, > 100 µM (inactive); with TK-10, > 100 µM (inactive).
With `CC(C)CCC[C@@H](C)[C@H]1CC[C@H]2C3=C[C@H](OS(=O)(=O)O)[C@@]4(O)C[C@@H](O)CC[C@]4(C)[C@@]3(O)CC[C@]12C`, the GI50 in the assay on RXF 393, with HCC 2998, with SN12C, in the assay on SK-MEL-28, in the assay with SF-295 and in the assay on RPMI-8226 was > 100 µM (inactive) throughout. The GI50 with A549 is > 100 µM (inactive); in the assay with Malme-3M it was > 100 µM (inactive); with COLO 205 it was > 100 µM (inactive); in the assay on HOP-62, > 100 µM (inactive); with HT-29 it was 42 µM (inactive); in the assay with MDA-MB-435 it was > 100 µM (inactive). Moreover, the GI50 in the assay on HCT-15 is more than 100 µM; with K562, 45.6 µM (inactive); with SK-MEL-2, > 100 µM (inactive); with M14 it was > 100 µM (inactive); in the assay on CAKI-1, > 100 µM (inactive); in the assay on TK-10, > 100 µM (inactive).
Turning to `O/N=C(\CC(O)(C(F)(F)F)C(F)(F)F)c1cccs1`, the GI50 in the assay on RXF 393, in the assay with HCC 2998, with SN12C, in the assay on SK-MEL-28, with SF-295 and in the assay on RPMI-8226 was > 10 µM (inactive) each time. The GI50 in the assay with A549, in the assay on Malme-3M, in the assay with COLO 205, with HOP-62, in the assay with HT-29 and in the assay on MDA-MB-435 was > 10 µM (inactive) each time. Moreover, the GI50 in the assay on HCT-15 is more than 10 µM; in the assay with K562, > 10 µM (inactive); in the assay with SK-MEL-2, > 10 µM (inactive); in the assay with M14, > 10 µM (inactive); in the assay with CAKI-1 it was > 10 µM (inactive); with TK-10, > 10 µM (inactive).
Consider `COC(=O)c1cc2c(n1S(=O)(=O)c1ccc(C)cc1)C(=O)C(=O)c1[nH]cc(C(=O)OCc3ccccc3)c1-2`, for which the GI50 in the assay with RXF 393 is 0.0973 µM (active); with HCC 2998 it was 0.218 µM (active); in the assay on SN12C it was 0.08 µM (active); with SK-MEL-28, 0.107 µM (active); in the assay with SF-295, 0.12 µM (active); in the assay on RPMI-8226, 0.0883 µM (active). Moreover, the GI50 in the assay on A549 is 0.183 µM (active); in the assay on Malme-3M, 0.0321 µM (active); in the assay on COLO 205, 0.191 µM (active); in the assay with HOP-62 it was 0.149 µM (active); in the assay with HT-29, 0.273 µM (active); with MDA-MB-435, < 0.015 µM (active). The GI50 in the assay with HCT-15 was 0.0673 µM; with K562 it was 0.0439 µM (active); in the assay on SK-MEL-2 it was 0.112 µM (active); in the assay with M14, 0.0621 µM (active); in the assay on CAKI-1, 0.355 µM (active); in the assay on TK-10 it was 0.716 µM (active).

A word on the GI50: it is the concentration that inhibits growth by half.
